ChEMBL document CHEMBL3507680, “University of Dundee, Gates Library screen for HepG2 cell viability”

assay: Human HepG2 cell viability assay in 384 well format; assay type: toxicity, cell-based; set-up: dose 125 nL, time 70.5 hour; concentration not given beside the values; settings: HepG2 cells, read-out: Inhibition

SMILES	cytotoxicity at 70.5 h [%]
O=C(NCc1nc(C2CCCCC2)no1)C1CC(=O)N(C2CC2)C1 (centres undefined)	5.86
CC(=O)N[C@@H]1CN(c2nc(CO)cs2)C[C@H]1c1ccc(C)o1	-12.8
O=C(Cc1ccco1)N1C[C@H]2CCC[C@@]2(COCC2CC2)C1	-11.1
CCN(CC)CCN(C)c1nc(-c2ccc(Cl)cc2)nc2c1CNC2	20.6
Cn1ccc(CN2CCN(CC3CC3)CC2)cc1=O	21.6
COCc1noc(-c2ccc(N3CCCC3c3nccs3)nc2)n1 (centres undefined)	12
Cc1cc(-c2nn(C)c(Cl)c2CN2CCOCC(O)C2)no1 (centres undefined)	-11.6
Cc1n[nH]c(=O)c2c(NC(=O)CN3CCC(O)CC3)oc(C)c12	7.13
CC(C)NC(=O)N1C[C@@H](F)[C@@H](OCc2nc3ccccc3o2)C1	-0.085
CCc1nc(N)nc(N2CCCC3(CCOCC3)C2)c1C	-7.63
Cc1cc(-c2cccnc2)nc(C2CCCN2S(C)(=O)=O)n1 (centres undefined)	-3.42
Cc1nn(C2CCCCC2)c2nc(C(C)(C)CN3CCOCC3)[nH]c12	-6.99
Cc1nc2c(c(N(C)Cc3ccccc3-n3cccn3)n1)CCNCC2	26.5
CCOc1ccc(S(=O)(=O)C(C)C(=O)Nc2cc(C)no2)cc1 (centres undefined)	-4.64
Cc1ccc(CC(=O)N2CCCC(c3cc(C(N)=O)[nH]n3)C2)cn1 (centres undefined)	-2.37
O=C(CCNC(=O)c1ccoc1)Nc1cc(F)ccc1F	-5.4
N#Cc1ccc(OC2CCN(C(=O)c3cncc(Br)c3)CC2)nc1	-9.99
NS(=O)(=O)CCN1CCN(c2cc(F)ccc2F)CC1	10.3
Cc1cc(C)cc(-c2cccc(CC3(C(=O)O)CCOCC3)c2)c1	43.6
CCc1ncncc1C(=O)NCCN1CCC(C)CC1	-4.63
Cc1cc(C)nc(C2CCN(C(=O)c3c(C)noc3C)C2)n1 (centres undefined)	-3.76
CC(C)N1CCC2(CC1)CC(NCc1ccccn1)c1ccccc1O2 (centres undefined)	-0.344
Cc1nn(CC(=O)n2cccn2)c(C)c1I	15.6

SMILES	cytotoxicity at 70.5 h [%]
O=C([C@H]1C[C@H]2OCC[C@H]2N(CCc2ccccc2)C1)N1CCCCO1	-6.32
c1cncc(C2=NOC3(CCN(Cc4c[nH]c5ccccc45)CC3)C2)c1	5.06
CC(c1ccc(C(=O)NCCc2nc(N)cc(O)n2)o1)N1CCCCC1 (centres undefined)	-3.9
O=C(Nc1nncs1)NC1CCOc2ccccc21 (centres undefined)	3.46
c1coc(-c2nc(CN3CCOC(Cn4cccn4)C3)cs2)c1 (centres undefined)	29.1
Cc1nc(C)n(CC2CCCCN2CCCN2CCCC2=O)n1 (centres undefined)	33.6
CC(C)N(C)CCNC(=O)NCc1ccccc1-n1cccn1	-7.41
Cn1c(CN2CCCCC2)nnc1C1CCCN(C(=O)CCC(N)=O)C1 (centres undefined)	-9
Cc1nc(C)n(CC2CCCN(CCC(=O)N3CCOCC3)C2)n1 (centres undefined)	-4.61
O=C(NCc1ccccc1CN1CCCCCC1)Nc1nncs1	-5.79
CC(C)Cc1cc(C(=O)N2CCC(Oc3cccnc3)CC2)n(C)n1	-8.18
Cc1nn(C)cc1NC(=O)CC1CCN(CCc2ccccc2)CC1	-7.48
CCNC(=O)CN1CCCN(C(=O)C2CCCc3[nH]ncc32)CC1 (centres undefined)	-8.68
CCc1noc(CN2CCCC(Cn3nc(C)nc3C)C2)n1 (centres undefined)	-12.1
CCn1cc(CN(C)S(=O)(=O)c2ccc(C(C)C)cc2)cn1	-6.2
CC(C)C(O)C1(CNC(=O)Nc2ccc(CN3CCOC3=O)cc2)CC1 (centres undefined)	-11.3
CC[C@@H](Cn1ncc2ccccc2c1=O)NC(=O)c1cnc(C)cn1	-6.57
O=C(c1ccc(Br)o1)N1CCN(Cc2ccc(OC(F)(F)F)cc2)CC1	-2.19
O=C(c1ccc(F)cc1)N1CC[C@H]2[C@H]1CCN2CC1CCOCC1	-6.57
COc1cncc(-n2ccnc2-c2ccc(C(=O)O)s2)c1	-10
O=C(NCCC1CN(C2CCCC2)CCO1)c1c[nH]c(=O)[nH]c1=O (centres undefined)	-12.3
Cc1nc(CCC(N)=O)cc(C2CCNCC2)n1	18.8
Cc1ccc(C(C)N(C)Cc2nc3c(cnn3C)c(=O)[nH]2)c(C)c1 (centres undefined)	-4.81

SMILES	cytotoxicity at 70.5 h [%]
CN(C)C1CCN(C(=O)c2ccnn2-c2ccc3ccccn23)CC1	-5.01
COCCN1CCN(CCCS(C)(=O)=O)CC1C (centres undefined)	42.9
CCNc1cc2c(nn1)CCN(C(=O)c1ccnc(C)n1)C2	-2.85
O=C(NCCc1ccncc1)c1cccc(S(=O)(=O)NC2CCOC2)c1 (centres undefined)	5.63
Cc1cc2c(c(-c3cncc(C(=O)N4CCCC4)n3)c1)OC(CN)C2 (centres undefined)	-6.51
COc1cccc2c3c(c(=O)n(C)c12)CCC(C)(C)O3	-10.4
CN1CCC(N(Cc2ccccc2)C(=O)c2nccn3ccnc23)CC1	-7.08
O=C(Nc1ccccc1)C1=NOC2(CCNCC2)C1	-6.36
c1cncc(CN2CCc3c(CNc4nccs4)n[nH]c3C2)c1	-25
Cc1cc(-c2cnc(NCc3cccnc3)nc2C(C)(C)C)on1	-18.2
CN1CCCCC1c1ncc2c(n1)CCN(CCCc1ccccc1)C2 (centres undefined)	16.2
COc1ccc(-c2c(C(C)C)nn3c(=N)c(C#N)n[nH]c23)cc1	-20.1
Cc1nc(CN2CCc3nn(C)c(=O)cc3C2)oc1C	-9.42
CCc1nc2n(n1)CC(NCc1ccccc1OCC(=O)NC)CC2 (centres undefined)	-2.9
CN(C)c1ncccc1CNc1snc(Cl)c1C#N	-77.9
Cc1cc(N(C)CCN(C)C2CCCC2)n2nc(C)cc2n1	-1.99
Cn1cnc2c1CCN(CCS(=O)(=O)c1ccc(Cl)cc1)C2	-5.54
Cc1nc(O)cc(C2CCN(C(=O)c3ccsc3)CC2)n1	-5.48
COCc1nnn2c1CN(C(=O)c1ccnnc1)CCC2	8.76
CCc1cnc(N)nc1NCCc1ccc(OC)cc1OC	-0.653
CCN1CC2(CC1=O)CN(C(C)=O)CCN(C(=O)NC)C2 (centres undefined)	-3.8
CN1C(=O)C(c2ccccc2)CC12CCN(CCO)CC2 (centres undefined)	-14.6
COc1ccc(CSCC(O)CO)c(Cl)c1 (centres undefined)	18.2

SMILES	cytotoxicity at 70.5 h [%]
CCN(CC(=O)NC(C)C)S(=O)(=O)N1CCC(C)C1 (centres undefined)	-6.99
COC(=O)CNC(=O)c1nc(-c2ccccc2OC)c2cnccn12	-11.4
COc1cccc(C(=O)N2CCc3c(nc(N)[nH]c3=O)C2)c1C	1.02
COc1cccc(CN2CCCC(Nc3cccc(F)c3)C2)c1O (centres undefined)	-4.92
Cc1nn(C)c(C)c1-c1ccnc(N(C)Cc2noc(C(C)C)n2)n1	7.17
Cc1c(F)cccc1CN1CCn2nc(CNC(=O)N(C)C)cc2C1	20
CCCc1cc(C(=O)N(C)Cc2cccc3ncccc23)n(C)n1	-14.7
Cc1noc(C)c1CC(=O)OCc1nc(N)c2ccccc2n1	-3
O=C([C@@H]1Cc2[nH]cnc2CN1Cc1cc2ccccc2o1)N1CCCC1	8.38
Cn1ccc(CN2CCC(OCc3ccccc3)CC2)cc1=O	21.5
Cc1noc(C2CCC3(CCN(C(=O)c4ccnnc4)CC3)O2)n1 (centres undefined)	-0.131
CCOc1cc(CN2CCCC2)ccc1Oc1cccc(C#N)n1	-1.2
O=C(NCc1ccc(OCC2CC2)nc1)C1COc2ccccc2O1 (centres undefined)	-5.51
CN(C)C(=O)N1CC2(CCNCC2)c2cc(F)ccc21	-8.45
CC(C)(NS(C)(=O)=O)c1nc(-c2ccncc2)no1	18.6
COc1ccccc1C(NC(=O)C1CCCC1)c1noc(C)n1 (centres undefined)	1.95
CC(C)N1CCC(Cn2cc(C(N)=O)cn2)CC1	11.9
c1ccc(CN2CCOC[C@H]2c2nc(-c3ccncc3)c[nH]2)nc1	1.25
Cc1ccnc(C(Nc2nccc(-c3ccc(C)nc3C)n2)C2CC2)c1 (centres undefined)	-6.77
CC(=O)N1CCC(Cc2cnc(-c3c(C)n[nH]c3C)cn2)CC1	18.9
COC[C@@]12CC[C@@H](N3CCOCC3)C[C@H]1CCN(c1nc(CO)cs1)C2	10.8
CCC(CC)CS(=O)(=O)NC(=O)C1CCCC1	26.6
COc1ccccc1C(CNC(=O)NCc1cc[nH]n1)N1CCCC1 (centres undefined)	12.7

SMILES	cytotoxicity at 70.5 h [%]
CCC(=O)Nc1cccc(OCC(=O)N(C)CCCC2CCCO2)c1 (centres undefined)	-3.54
COC(=O)N1CCc2ccccc2C1C(=O)NCc1cccs1 (centres undefined)	-6.75
NC(=O)c1ccc(CNCC2CCN(CCO)CC2)cc1	-5.52
Cc1cncc(C(=O)N2Cc3ccccc3C3(CCN(C)CC3)C2)c1	-14.6
CC(NC(=O)NCCn1ccnc1)c1nncn1C (centres undefined)	20.5
COC(=O)CC1CCCCN1CC(=O)Nc1ccc(F)cc1Cl (centres undefined)	21.6
O=S1(=O)C[C@@H]2[C@H](C1)N(Cc1ncc[nH]1)CCN2Cc1cccnc1	-3.77
CS(=O)(=O)c1ccc(CNC(=O)NCC2CCOC2)cc1 (centres undefined)	4.53
CCn1cc(CN2CCCN(C3Cc4ccccc4C3)CC2)c(C)n1	24.3
CCCc1nc(C(C)(C)NC(=O)C2CC(=O)N(CC3CC3)C2)no1 (centres undefined)	-6.06
CS(=O)(=O)NCC1CCCN(c2ccc(C(F)(F)F)cn2)C1 (centres undefined)	-7.49
Cc1nsc(NC2CC(=O)N(C(C)(C)C)C2)n1 (centres undefined)	11.5
Cc1ncccc1C(=O)NCc1ccccc1CN(C)Cc1ccco1	-1.05
CN(C)S(=O)(=O)N1CCC2(COCc3cnc(NCC4CC4)nc32)C1 (centres undefined)	29.2
Cc1cnn(C2CCCN(C(=O)Cc3ccc4c(c3)CCO4)C2)c1 (centres undefined)	13.9
Cc1nc(NC(=O)C(C)N(C)Cc2ccc3c(c2)OCO3)sc1C (centres undefined)	-5.16
O=S(=O)(C1CC1)N1CCOCC2(CN(c3ncccn3)CCO2)C1 (centres undefined)	-9.2
Cc1nc(CC(=O)N2CCc3nnc(N(C)C)cc3C2)cs1	0.153
Cn1cc(Cl)c(C(=O)N2CCc3nc4sccc4c(=O)n3CC2)n1	-2.51
Fc1ccc(CN2CCO[C@H]3[C@H](OCC4CC4)CC[C@@H]32)cc1	-4.72
Cc1occc1C(=O)NCC(=O)N(C)CCCOc1ccccc1	-1.18
O=C(c1cccnc1)N1CCCC(Cc2nccs2)C1 (centres undefined)	-6.74
